ChEMBL document CHEMBL1909046, “DrugMatrix in vitro pharmacology data”

Columns and labels:
[1] = DRUGMATRIX: GABAA, Flunitrazepam, Central radioligand binding (ligand: [3H] Flunitrazepam); assay type: cell membranes, Rattus norvegicus, Wistar, Brain, Membrane; settings: Not Active = under 50% inhibition at 10 µM
[2] = biological target: C-C chemokine receptor type 5 (Homo sapiens, UniProt P51681); assay type: cell membranes, Membrane; settings: hek293; also: in other assays of this panel Not Active means under 50% inhibition at 10 µM
C-C chemokine receptor type 5, sequence (P51681 whole entry): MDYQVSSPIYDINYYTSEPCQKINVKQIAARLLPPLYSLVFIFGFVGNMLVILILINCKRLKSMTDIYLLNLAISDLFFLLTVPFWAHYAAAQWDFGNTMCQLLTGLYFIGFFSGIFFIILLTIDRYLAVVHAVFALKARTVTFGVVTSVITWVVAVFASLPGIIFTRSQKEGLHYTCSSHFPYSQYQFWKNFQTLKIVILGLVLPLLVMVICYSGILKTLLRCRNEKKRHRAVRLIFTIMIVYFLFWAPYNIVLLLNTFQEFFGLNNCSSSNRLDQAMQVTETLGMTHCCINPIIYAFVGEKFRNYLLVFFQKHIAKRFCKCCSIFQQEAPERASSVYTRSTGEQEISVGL

[3] = DRUGMATRIX: Phosphodiesterase PDE3 enzyme inhibition (substrate: [3H]cAMP + cAMP); assay type: tissue-based, Homo sapiens; settings: platelet; Not Active = under 50% inhibition at 10 µM
[4] = biological target: T1, Vasoactive intestinal polypeptide receptor 1 (Homo sapiens, UniProt P32241); assay type: cell membranes, Membrane; settings: ht-29; also: in other assays of this panel Not Active means under 50% inhibition at 10 µM
T1 sequence (P32241 whole entry): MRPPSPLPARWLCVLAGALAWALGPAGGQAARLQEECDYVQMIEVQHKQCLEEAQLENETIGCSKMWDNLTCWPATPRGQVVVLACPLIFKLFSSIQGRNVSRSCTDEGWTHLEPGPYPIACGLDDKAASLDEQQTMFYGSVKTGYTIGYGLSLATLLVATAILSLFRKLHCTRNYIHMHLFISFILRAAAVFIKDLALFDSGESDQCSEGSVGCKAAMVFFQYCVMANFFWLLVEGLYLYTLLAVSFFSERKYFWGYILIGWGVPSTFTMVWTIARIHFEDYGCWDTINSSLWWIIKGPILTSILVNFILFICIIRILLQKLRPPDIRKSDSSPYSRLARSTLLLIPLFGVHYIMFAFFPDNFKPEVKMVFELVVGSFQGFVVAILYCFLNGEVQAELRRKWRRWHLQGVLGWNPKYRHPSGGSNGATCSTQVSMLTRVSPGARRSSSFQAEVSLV

[5] = biological target: Epidermal growth factor receptor (Homo sapiens, UniProt P00533); assay: DRUGMATRIX: Protein Tyrosine Kinase, EGF Receptor enzyme inhibition (substrate: Poly(Glu:Tyr)); assay type: cell-based, Insect cells; settings: insect cells; Not Active = under 50% inhibition at 10 µM
Epidermal growth factor receptor, sequence (P00533 whole entry): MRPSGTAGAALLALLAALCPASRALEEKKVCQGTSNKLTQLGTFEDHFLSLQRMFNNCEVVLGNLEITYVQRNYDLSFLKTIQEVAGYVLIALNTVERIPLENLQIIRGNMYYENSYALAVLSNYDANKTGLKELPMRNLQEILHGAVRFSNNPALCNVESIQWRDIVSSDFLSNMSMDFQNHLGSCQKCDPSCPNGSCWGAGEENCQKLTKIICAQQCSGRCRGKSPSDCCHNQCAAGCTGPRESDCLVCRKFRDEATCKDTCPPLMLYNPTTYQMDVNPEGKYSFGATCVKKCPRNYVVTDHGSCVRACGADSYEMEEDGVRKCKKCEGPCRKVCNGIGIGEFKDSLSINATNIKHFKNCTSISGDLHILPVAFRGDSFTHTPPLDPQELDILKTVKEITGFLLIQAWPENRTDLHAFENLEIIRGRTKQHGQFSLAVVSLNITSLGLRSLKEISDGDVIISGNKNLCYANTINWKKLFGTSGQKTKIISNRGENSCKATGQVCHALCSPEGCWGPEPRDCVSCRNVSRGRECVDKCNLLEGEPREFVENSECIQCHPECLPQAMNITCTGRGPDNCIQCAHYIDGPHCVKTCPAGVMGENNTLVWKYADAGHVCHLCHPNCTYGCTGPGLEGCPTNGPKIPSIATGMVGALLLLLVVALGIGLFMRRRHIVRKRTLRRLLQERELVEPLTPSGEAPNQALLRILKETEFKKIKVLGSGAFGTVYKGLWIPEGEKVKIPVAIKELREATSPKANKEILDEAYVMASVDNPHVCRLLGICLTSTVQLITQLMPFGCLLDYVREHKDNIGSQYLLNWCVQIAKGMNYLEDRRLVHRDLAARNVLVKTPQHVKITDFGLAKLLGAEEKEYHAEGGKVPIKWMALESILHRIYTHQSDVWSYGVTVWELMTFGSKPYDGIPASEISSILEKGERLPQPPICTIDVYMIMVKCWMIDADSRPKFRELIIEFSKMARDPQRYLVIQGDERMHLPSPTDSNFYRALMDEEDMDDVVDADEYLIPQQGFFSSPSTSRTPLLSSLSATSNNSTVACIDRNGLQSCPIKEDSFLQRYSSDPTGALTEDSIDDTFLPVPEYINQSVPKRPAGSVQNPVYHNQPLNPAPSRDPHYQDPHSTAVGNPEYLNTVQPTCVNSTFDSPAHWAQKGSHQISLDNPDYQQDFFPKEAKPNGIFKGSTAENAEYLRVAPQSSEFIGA

[6] = biological target: Cytochrome P450 3A4 (Homo sapiens, UniProt P08684); settings: bti-tn-5b1-4; also: in other assays of this panel Not Active means under 50% inhibition at 10 µM
Cytochrome P450 3A4, sequence (P08684 whole entry): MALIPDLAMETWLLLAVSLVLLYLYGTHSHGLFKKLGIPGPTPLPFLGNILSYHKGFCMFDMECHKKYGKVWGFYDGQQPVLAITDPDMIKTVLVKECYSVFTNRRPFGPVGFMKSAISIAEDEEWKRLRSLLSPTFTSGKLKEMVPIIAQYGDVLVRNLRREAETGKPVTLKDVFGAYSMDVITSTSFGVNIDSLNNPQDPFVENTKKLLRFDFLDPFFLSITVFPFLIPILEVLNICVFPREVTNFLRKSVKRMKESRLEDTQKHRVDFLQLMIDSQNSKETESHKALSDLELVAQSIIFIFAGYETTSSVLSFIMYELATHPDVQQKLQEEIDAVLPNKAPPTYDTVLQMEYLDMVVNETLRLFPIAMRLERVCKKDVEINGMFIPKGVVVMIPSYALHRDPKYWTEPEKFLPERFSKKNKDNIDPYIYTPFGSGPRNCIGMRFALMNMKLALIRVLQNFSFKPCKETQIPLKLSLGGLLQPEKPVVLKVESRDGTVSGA

[7] = biological target: Cannabinoid receptor 1 (Homo sapiens, UniProt P21554); assay type: cell membranes, Membrane; settings: chem-1; also: in other assays of this panel Not Active means under 50% inhibition at 10 µM
Cannabinoid receptor 1, sequence (P21554 whole entry): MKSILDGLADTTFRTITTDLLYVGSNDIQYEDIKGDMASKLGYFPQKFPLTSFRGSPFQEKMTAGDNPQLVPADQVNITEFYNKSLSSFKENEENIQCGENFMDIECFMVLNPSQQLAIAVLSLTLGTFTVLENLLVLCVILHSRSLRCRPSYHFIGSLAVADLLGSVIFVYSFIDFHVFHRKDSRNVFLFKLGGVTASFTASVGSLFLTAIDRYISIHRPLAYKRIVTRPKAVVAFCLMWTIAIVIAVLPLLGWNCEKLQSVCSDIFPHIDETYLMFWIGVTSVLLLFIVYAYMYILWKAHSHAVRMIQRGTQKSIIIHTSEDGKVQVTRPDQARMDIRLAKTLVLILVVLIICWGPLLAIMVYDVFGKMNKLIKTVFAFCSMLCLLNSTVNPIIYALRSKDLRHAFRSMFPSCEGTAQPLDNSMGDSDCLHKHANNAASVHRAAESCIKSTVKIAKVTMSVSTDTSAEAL

[8] = biological target: Beta-1 adrenergic receptor (Homo sapiens, UniProt P08588); assay: DRUGMATRIX: Adrenergic beta1 radioligand binding (ligand: [125I] Cyanopindolol); assay type: cell membranes, CHO-K1, Membrane; settings: Not Active = under 50% inhibition at 10 µM
Beta-1 adrenergic receptor, sequence (P08588 whole entry): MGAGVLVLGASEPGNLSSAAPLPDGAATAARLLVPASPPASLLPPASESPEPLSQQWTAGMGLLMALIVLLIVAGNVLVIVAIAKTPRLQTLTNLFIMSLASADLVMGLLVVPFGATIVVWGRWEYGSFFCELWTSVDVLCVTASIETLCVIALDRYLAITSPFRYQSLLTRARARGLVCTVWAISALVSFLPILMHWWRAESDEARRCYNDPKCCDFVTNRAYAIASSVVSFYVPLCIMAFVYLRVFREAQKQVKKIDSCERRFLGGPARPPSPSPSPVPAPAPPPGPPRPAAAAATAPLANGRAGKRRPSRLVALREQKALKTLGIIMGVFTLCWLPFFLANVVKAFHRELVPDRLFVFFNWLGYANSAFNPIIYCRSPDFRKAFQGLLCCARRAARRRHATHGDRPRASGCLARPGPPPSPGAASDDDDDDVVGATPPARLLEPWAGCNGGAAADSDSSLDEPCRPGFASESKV

Structure (SMILES)	IC50 [1]	Ki [1]	IC50 [2]	IC50 [3]	Ki [3]	IC50 [4]	IC50 [5]	IC50 [6]	Ki [6]	IC50 [7]	IC50 ([8]; cho-k1)	IC50 ([8]; read-out: IC50) [nM]	Ki ([8]; read-out: Ki) [nM]
CC(C)C(Br)C(=O)NC(N)=O (stereo not drawn) [BROMISOVALUM]	Not Active	Not Active	Not Active	Not Active	Not Active	Not Active	Not Active	Not Active	Not Active	Not Active	Not Active		
CCCC1O[C@@H]2C[C@H]3[C@@H]4CCC5=CC(=O)C=C[C@]5(C)[C@H]4[C@@H](O)C[C@]3(C)[C@]2(C(=O)CO)O1 (stereo partly drawn) [BUDESONIDE]	Not Active	Not Active	Not Active	Not Active	Not Active	Not Active	Not Active	Not Active	Not Active	Not Active	Not Active		
CC(NC(C)(C)C)C(=O)c1cccc(Cl)c1 (stereo not drawn) [BUPROPION]	Not Active	Not Active	Not Active	Not Active	Not Active	Not Active	Not Active	Not Active	Not Active	Not Active	Not Active		
CN(Cc1ccc(C(C)(C)C)cc1)Cc1cccc2ccccc12 [BUTENAFINE]	Not Active	Not Active	Not Active	Not Active	Not Active	Not Active	Not Active	Not Active	Not Active	Not Active	Not Active		
C[C@H](CS)C(=O)N1CCC[C@H]1C(=O)O [CAPTOPRIL]	Not Active	Not Active	Not Active	Not Active	Not Active	Not Active	Not Active	Not Active	Not Active	Not Active	Not Active		
Cc1ccc(-c2cc(C(F)(F)F)nn2-c2ccc(S(N)(=O)=O)cc2)cc1 [CELECOXIB]	Not Active	Not Active	Not Active	Not Active	Not Active	Not Active	Not Active	Not Active	Not Active	Not Active	Not Active		
O=C(O)CCCc1ccc(N(CCCl)CCCl)cc1 [CHLORAMBUCIL]	Not Active	Not Active	Not Active	Not Active	Not Active	Not Active	Not Active	Not Active	Not Active	Not Active	Not Active		
C[C@H](CCC(=O)O)[C@H]1CC[C@H]2[C@@H]3[C@H](O)C[C@@H]4C[C@H](O)CC[C@]4(C)[C@H]3C[C@H](O)[C@]12C [CHOLIC ACID]	Not Active	Not Active	Not Active	Not Active	Not Active	Not Active	Not Active	Not Active	Not Active	Not Active	Not Active		
Cc1cc(C2CCCCC2)n(O)c(=O)c1 [CICLOPIROX]	Not Active	Not Active	Not Active	Not Active	Not Active	Not Active	Not Active	Not Active	Not Active	Not Active	Not Active		
CC1=C2C(=CO[C@H](C)[C@H]2C)C(O)=C(C(=O)O)C1=O [CITRININ]	Not Active	Not Active	Not Active	Not Active	Not Active	Not Active	Not Active	Not Active	Not Active	Not Active	Not Active		
CC(C)(C)NCC(O)c1cc(Cl)c(N)c(Cl)c1 (stereo not drawn) [CLENBUTEROL]	Not Active	Not Active	Not Active	Not Active	Not Active	Not Active	Not Active	Not Active	Not Active	Not Active		120	69
Clc1cccc(Cl)c1NC1=NCCN1 [CLONIDINE]	Not Active	Not Active	Not Active	Not Active	Not Active	Not Active	Not Active	Not Active	Not Active	Not Active	Not Active		
